The test system of one assay is angiotensin-(1-9). The following applies: administration of the drug; cited from earlier work.
The subject of a further assay is rat mesenteric arteries. Description: Contractility studies in perfused, pressurized mesenteric arteries. The following applies: co-incubated with angiotensin-(1-9). Here is the method: The change in diameter of rat resistance (mesenteric) arteries was determined, they were then perfused and pressurized under physiological conditions, in response to different substances, according to a methodology previously described (Gonzalez et al. Hypertension 45:853-9, 2005). Briefly, male rats (Sprague Dawley, 150-200 g) were euthanized for dissection of mesenteric vascular territory, avoiding direct manipulation of arterial or venous tissue. Mesenteric small arteries (200-300 micrometers) were isolated, surgically eliminating adventitial tissue under a zoom stereo microscope (Olympus SZ61). The arteries were perfused intraluminally into a thermoregulated bath at controlled pressure and flow, with perfusion solution (modified Krebs, KRB) of the following composition, in mmol/L: NaCl, 130; CaCl2, 2.5; NaHCO3, 25; MgSO4, 1.2; NaH2PO4, 1.2; KCl, 4.7; glucose, 5.5, pH 7.4. Before use, KRB was gassed with a mixture of 95% O2 and 5% CO2. For perfusion, the artery was cannulated with a glass micropipette (outer diameter 164μ), secured with 5-0 silk suture. The arteries were perfused with 10-20 μL/min KRB, so as to achieve transmural pressure of 60 mmHg. After a rest period of 20 minutes, each artery was incubated in the presence of a vasoconstrictor (100 μM phenylephrine) for two minutes and an endothelial NO production agonist (1 μM acetylcholine). […]

Assay [1] has as its system hypertensive rats by administration of angiotensin II. Description: Hypertension induced by angiotensin II infusion: body mass, cardiac mass, systolic blood pressure. The class given is in vivo, rat. The procedure: (§1) Rats were subjected to the model of angiotensin II infusion (Grobe et al.: Am. J. Physiol. 292: H736-42, 2007). The animals were separated randomly into the following experimental groups: controls (Sham or pseudo-operated), infused with angiotensin II (300 ng/kg min), infused with angiotensin II and angiotensin-(1-9) (300 ng/kg min and 602 ng/kg min, respectively), and then infused with angiotensin II, angiotensin-(1-9) and the angiotensin-(1-7) receptor antagonist, A779 (300 ng/kg min, 602 ng/kg min, and 100 ng/kg min, respectively). In all cases the pumps operated at a flow of 0.5 μL/h and were implanted in the right jugular vein through a catheter fitted in an intrascapular subcutaneous pocket under anesthesia with ketamine HCl/xylazine (35 and 7 mg/kg i.p., respectively), for a period of 14 days.
Systolic blood pressure (SBP) was measured by the tail plethysmographic method in the animals. To such end, rats were lightly anesthetized with ethyl ether. The measurement was performed once a week by researchers blind to the treatment (Ocaranza et al. J. Hypertens. 20:413-20, 2002).
The degree of cardiac hypertrophy (CH) was measured by the ratio of the cardiac mass (CM), the body mass (BM) and relative cardiac mass (RCM; [CM/BM]*100) (Ocaranza et al., J. Hypertens. 28:1054-1064, 2010).
Four experimental groups of rats were established as described in Example 1. Group 1 corresponds to rats which were infused with saline (Sham). Group 2 corresponds to rats which were infused with only angiotensin II. Group 3 correspond to rats which were co-infused with angiotensin II and angiotensin-(1-9). And Group 4 corresponds to rats which were co-infused with angiotensin II, angiotensin-(1-9) and A779.

Assay [2] deals with thoracic aortas of hypertensive rats by angiotensin II infusion. In words: Angiotensin II infusion model: aortic hypertrophy by morphometry. The class given is in vivo, rat. The conditions noted are these: thoracic aorta, 14 days infusion. The procedure: as §1
Aortic hypertrophy was determined by morphometry. Sections of the descending aorta of 5 μm thick, which were previously fixed in Bouin (1.3% picric acid, 9.5% formaldehyde and 4.8% acetic acid) for 24 hours, embedded in paraffin and stained with hematoxylin-eosin, were used, to be examined later in a light microscope as described by Igase et al. (Am. J. Physiol. 289:H1013-9, 2005). Briefly, images of the aortas were captured by a video camera (Nikon) fixed to a microscope (Nikon), and projected on a monitor; using the software Nis-Element. Lumen areas (LA) and total areas (TA) were calculated and recorded. The tunica media area (TMA) was obtained from the difference between the TA and LA of the aorta. The tunica media thickness (TMT) was defined as the region delimited by the external elastic lamina (EEL) and internal elastic lamina (IEL).

The test system of assay [3] is cardiomyocyte hypertrophy induced by Ang II in vivo. Description: Angiotensin II infusion model: cardiomyocyte hypertrophy (area and perimeter). Details: species or system rat. The following applies: two weeks. Here is the method: as §1
The middle portion of the left ventricle (LV) was dehydrated at room temperature for 24 h in Bouin and then embedded in paraffin. Sections of 10-15 μm thick were taken and stained with hematoxylin-eosin, to be examined later in a light microscope in order to observe their general morphological characteristics. Cardiomyocyte size was determined according to Nakamura et al. (Circulation, 98:794-9, 1998). Briefly, images of the cells were captured using a Nikon DS Fi1 camera and projected on a monitor using a software program. The cardiomyocyte area and perimeter were measured and recorded, using the Nis-Element program (Ocaranza et al. J. Hypertens., 28:1054-64, 2010). All measurements were performed by a blinded observer, and at least 80 images of cells per animal, which were randomly selected, were analyzed.

Another assay deals with TGF-β mRNA. Description: Angiotensin II infusion model: TGF-β mRNA levels in the aortic wall. The assay is classed as in vivo, rat. The following applies: normalized to 18S rRNA. Here is the method: as §1
(§2) The procedure described by Ocaranza et al. (Hypertension 48:572-8, 2006) was followed. Briefly, total RNA was isolated from the aorta using the trizol method and quantified by spectroscopy at 260 nm/280 nm. The cDNA was obtained by reverse transcription from 1.5 μg of total RNA treated with DNAse. […] The band intensity was quantified by densitometry and normalized to the 18S ribosomal RNA band.

For the next assay, the system named is MCP-1 mRNA. In words: Angiotensin II infusion model: MCP-1 mRNA levels in the aortic wall. The assay is classed as in vivo, rat. The procedure: as §1, §2
Another assay relates to collagen I. Description: Angiotensin II infusion model: collagen I protein levels in the aortic wall by Western blot. The class given is in vivo, rat. The conditions noted are these: aortic wall. Here is the method:
as §1
For the determination of collagen I and TGFβ-1, 30 μg and 50 μg of total proteins were used, respectively, diluted in SDS reducing buffer (50 mM tris-HCl, pH 7.4, NP-40 10%, NaCl 1M, Na deoxycholate 5%, EDTA 10 mg/mL, SDS 10%, aprotinin 1 mg/mL, leupeptin 0.1 mg/mL, PMSF 10 mM), they were then separated by SDS-PAGE gel electrophoresis 7%, and transferred to nitrocellulose membranes of […] to 300 mA for 1 h. The transfer of proteins was monitored by Ponceau red staining. […]

As to `CCOC(=O)[C@H](CCc1ccccc1)N[C@@H](C)C(=O)N1CCC[C@H]1C(=O)O` [enalapril], the “plasma and/or tissue levels of angiotensin-(1-9)” value in the assay with angiotensin-(1-9) is on record as “increase”.

For `COC(=O)[C@@H](N)CCCNC(=N)N[N+](=O)[O-]` [L-NAME, reference compound], in the assay with rat mesenteric arteries, the “effect of nitric oxide synthase inhibitor on the vasodilator effect of angiotensin-(1-9)” value is on record as “decreased the vasodilator effect”.

On to “Asp-Arg-Val-Tyr-Ile-His-Pro-Phe [angiotensin II, infused to induce hypertension in the model, reference compound]”, for which the “SBP 1st week” value in assay [1] (1st week of infusion) amounted to 130 ± 4 mmHg. In addition, the “SBP 2nd week” value in assay [1] (2nd week of infusion) stood at 154 ± 10 mmHg. Also, the “Initial SBP” value in assay [1] (baseline, tail plethysmography) turned out to be 121 ± 9 mmHg. Besides, in assay [1] (rats, infusion for 14 days), the CM came to 899 ± 28 mg and the “RCM (MV/MC)” value came to 348 ± 18. Moreover, in assay [2], the “ratio of tunica media area (TMA) to LA” value is on record as “increase”, the “thickness of the tunica media (TMT)” value is on record as “increased significantly” and the “vascular lumen area (LA)” value was “no change”. In assay [3] (left ventricle), this compound returned a cardiomyocyte cell area of 282±2 μm^2 and a cardiomyocyte perimeter of 66.2±0.3 μm. In assay [3], the “increase in cell area as compared to the Sham control group” value is reported as 37% and the “increase in perimeter as compared to the Sham control group” value is 18%. Besides, the “increase of TGF-β mRNA in relation to Sham control” value in the assay with TGF-β mRNA is 12.8 times. In addition, the “MCP-1 mRNA levels” value in the assay on MCP-1 mRNA is listed as “no differences”. In addition, the “increase of collagen I as compared to the Sham control group” value in the assay on collagen I is 4.5 times.

Values taken from patent US9511120B2, “Use of the angiotensin-(1-9) peptide or derivatives thereof, use of vectors overexpressing the ACE2 enzyme that produces angiotensin-(1-9) for preparing medicaments useful for preventing, reverting, inhibiting and/or reducing hypertension and/or inducing vasodilation” (PONTIFICA UNIVERSIDAD CATÓLICA DE CHILE, priority 2012, dated 2016).
